Counter-ions that a name gives are not always drawn.
Key:
HL60 cells = conditions: read-out: IC50, growth of HL60 cells; cited from earlier work
xenograft models = conditions: in vivo; cited from earlier work
[1] = system: various tumor cells lines; conditions: cited from earlier work
pause release = assay: Inhibition of pause release; assay type: cell-based
From the text: It has undergone clinical trials in a number of different cancer types including various solid tumors and leukemias. […] Without wishing to be bound by theory, this may help counteract the effects of Myc overexpression, and this may be the basis for the therapeutic effect of flavopiridol on some tumors.

c-Myc [2] = biological target: T1, c-Myc (Homo sapiens, UniProt P01106); conditions: cited from earlier work
T1 sequence (P01106 whole entry): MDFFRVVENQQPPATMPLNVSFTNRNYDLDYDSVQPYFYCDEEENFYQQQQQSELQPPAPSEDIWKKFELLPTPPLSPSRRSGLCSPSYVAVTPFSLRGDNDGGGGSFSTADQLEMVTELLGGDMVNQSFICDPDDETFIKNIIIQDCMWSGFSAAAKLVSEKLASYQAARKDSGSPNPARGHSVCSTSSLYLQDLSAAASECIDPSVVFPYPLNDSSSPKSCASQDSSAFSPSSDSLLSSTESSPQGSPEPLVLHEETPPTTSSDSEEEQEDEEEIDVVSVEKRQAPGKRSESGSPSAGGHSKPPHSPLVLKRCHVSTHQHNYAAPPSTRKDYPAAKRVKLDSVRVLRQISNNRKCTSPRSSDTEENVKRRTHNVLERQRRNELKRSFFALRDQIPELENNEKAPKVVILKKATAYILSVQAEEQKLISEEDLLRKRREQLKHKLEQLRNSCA

RNA Polymerase II = assay: ChIP-seq of RNA Polymerase II after JQ1 treatment (transcription elongation); assay type: cell-based, human; conditions: MM.1S cells
From the text: (FIG. 10B) Genes associated with super-enhancers show a dramatic defect in elongation.

c-MYC [3] = assay: Western blot of c-MYC protein levels after JQ1 or DMSO treatment; assay type: cell-based, human; conditions: MM.1S cells, 6 hours of JQ1 treatment
From the text: (§1) Schematic depicting the experimental procedure.

P-TEFb = assay: ChIP-Seq of P-TEFb occupancy in MM.1S cells after JQ1 treatment; assay type: cell-based, human
From the text: FIGS. 9(A)-9(C) illustrate that loss of P-TEFb accompanies BRD4 inhibition. (FIG. 9A) P-TEFb generally occupies enhancers bound by Mediator and BRD4 in MM1.S cells. […] (FIG. 9C) P-TEFb is disproportionally lost at super-enhancers.
BRD4 recruits the active form of the positive transcription elongation factor P-TEFb, which stimulates pause release and transcription elongation (Bisgrove et al., 2007; Hargreaves et al., 2009; Jang et al., 2005; Jiang et al., 1998; Wu and Chiang, 2007; Wu et al., 2003; Yang et al., 2005). […] Furthermore, P-TEFb was disproportionately lost at super-enhancers when compared to normal enhancers (FIG. 9C). We conclude that BET bromodomain inhibition of BRD4 leads to loss of P-TEFb at enhancers and transcription start sites, and that the inhibition has more profound effects at super-enhancers than at average enhancers.

MM.1S cells = assay: JQ1 sensitivity of MM.1S cells by measurement of ATP levels (CellTiterGlo); assay type: cell-based, human
From the text: as §1

c-Myc [4] = biological target: T1, c-Myc; conditions: cited from earlier work; remark: listed apart in the source
c-Myc/Max = c-Myc/Max (Homo sapiens, UniProt P01106); conditions: cited from earlier work
Chain of c-Myc/Max (P01106 whole entry): as above

c-Myc [5] = biological target: T1, c-Myc; conditions: at concentrations of 10-40 μM; cited from earlier work
[6] = system: chicken embryo fibroblasts; conditions: cited from earlier work

For `CCc1ccc(/C=C2/SC(=S)NC2=O)cc1` [10058-F4], the IC50 (HL60 cells) is given as 49 µM.
In the case of `CN1CC[C@H](c2c(O)cc(O)c3c(=O)cc(-c4ccccc4Cl)oc23)[C@H](O)C1` [Flavopiridol, (−)-2-(2-Chlorophenyl)-5,7-dihydroxy-8-[(3S,4R)-3-hydroxy-1-methyl-4-piperidinyl]-4H-1-benzopyran-4-one hydrochloride], the “tumor growth in xenograft models” value (xenograft models) is given as “inhibit tumor growth”, the “antitumor activity against various tumor cells lines” value [1] is given as “antitumor activity” and the pause release (pause release) is given as “inhibit pause release”.
In the case of `CNC(=O)c1cc2c(cc1C(=O)NC[C@H](NS(=O)(=O)c1c(Cl)sc(Cl)c1Br)C(=O)OC(C)(C)C)CN(C(=O)CCC1CCN(C(=O)OC(C)(C)C)CC1)C2` [IIA6B17], the “inhibition of c-Myc-dependent transcription in a reporter gene assay” value (c-Myc [2]) is given as “inhibit”.
In the case of `Cc1sc2c(c1C)C(c1ccc(Cl)cc1)=N[C@@H](CC(=O)OC(C)(C)C)c1nnc(C)n1-2` [JQ1], the “transcriptional elongation (PolII in the gene body and 3' transcription termination regions)” value (RNA Polymerase II) is reported as “global defect in transcriptional elongation”, the MYC protein levels (c-MYC [3]) is reported as “significantly depleted” and the “levels of P-TEFb at sites where there was a reduction in BRD4” value (P-TEFb) is reported as “reduce the levels of P-TEFb”. For the same molecule, the “MM1.S cell viability, as measured by ATP levels” value (MM.1S cells; 6 hour treatments, various concentrations of JQ1) was “little effect” and the “antiproliferative effect on MM1.S cells” value (MM.1S cells; later time points) was “dramatic antiproliferative effect”.
For `CN(C)CCCNc1cc(O)c2c(c1O)C(=O)c1ccccc1C2=O` [MYRA-A], the Myc-regulated gene expression (c-Myc [4]) is listed as “inhibit” and the apoptosis (c-Myc [4]) is listed as “induce apoptosis in a Myc-dependent manner”.
In the case of `COc1ccc(CNC(=O)c2cc3nc(-c4cccs4)cc(C(F)(F)F)n3n2)cc1` [Mycro1], the “inhibition of c-Myc/Max dimerization” value (c-Myc/Max) is listed as “inhibit” and the “specificity for c-Myc-dependent transcription over transcription mediated by AP-1 family proteins” value (c-Myc [2]) is listed as “weak-to-moderate specificity”.
In the case of `O=C(NCc1cccs1)c1cc2nc(-c3cccs3)cc(C(F)(F)F)n2n1` [Mycro2], the “inhibition of c-Myc/Max dimerization” value (c-Myc/Max) is given as “inhibit” and the “specificity for c-Myc-dependent transcription over transcription mediated by AP-1 family proteins” value (c-Myc [2]) is given as “weak-to-moderate specificity”.
For `CCOC(=O)c1cnn(-c2ccccc2)c1NC(=O)c1cc2nc(-c3cccs3)cc(C(F)(F)F)n2n1` [Mycro3], the “potency and selectivity against c-Myc in cellular assays” value (c-Myc [5]) is listed as “good potency and selectivity”, the “inhibition of c-Myc/Max dimerization” value (c-Myc/Max) is listed as “inhibited” and the “selectivity in vitro of inhibition of c-Myc/Max dimerization and DNA binding” value (c-Myc/Max; in vitro) is listed as “very good selectivity”.
For `COc1ccc(CN(C(=O)c2ccccn2)C(C(=O)NC2CCCCC2)c2ccc3cc(OCC(=O)OC(C)(C)C)ccc3c2)cc1` (stereo not shown) [NY2267], the “discrimination between transcription mediated by c-Jun and c-Myc” value (c-Myc [2]) is given as “did not discriminate”, the “inhibition of c-Myc-dependent oncogenic transformation of chicken embryo fibroblasts” value ([6]; at 20 μM) is given as “strongly inhibited” and the “selectivity over transformation mediated by v-Src or v-Jun” value [6] is given as “showed selectivity”.

Reference: patent US10160977B2, “Super-enhancers and methods of use thereof” (Whitehead Institute for Biomedical Research, priority 2012, dated 2018)
